Results as given in patent US20240148821A1, “PHARMACEUTICAL USE OF CYCLIC PEPTIDE COMPOUND” (CHUGAI SEIYAKU KABUSHIKI KAISHA, priority 2021, published 2024).
Numbered stars: 1 amine (or outer) side, 2 acyl side, 3 side chain; on linkers, the order of the positions; unused ones are H or OH. Bridge positions count the residues as written; N and C are the ends. Square brackets hold non-standard residues; d marks the D form. Peptide text beside a SMILES is read from it. * marks the point of attachment. hPhe(3,5-F2-4-CF3) = N[C@@H](CCc1cc(F)c(C(F)(F)F)c(F)c1)C(=O)O; hPhe(3-Cl-4-CF3) = N[C@@H](CCc1ccc(C(F)(F)F)c(Cl)c1)C(=O)O; hPhe(3-F,4-CF3) = N[C@@H](CCc1ccc(C(F)(F)F)c(F)c1)C(=O)O; NEtPhe(4-CF3) = CCN[C@@H](Cc1ccc(C(F)(F)F)cc1)C(=O)O; NMeAbu(4,4,4-F3) = CN[C@@H](CC(F)(F)F)C(=O)O; NMedβ3hAla = C[C@H](CC(=O)[*:2])N(C)[*:1]; NMeAla(cPent) = CN[C@@H](CC1CCCC1)C(=O)O; NMeGly(cPent) = CN[C@H](C(=O)O)C1CCCC1; Phe(3-I) = N[C@@H](Cc1cccc(I)c1)C(=O)O; Pro(4,4-F2) = O=C(O)[C@@H]1CC(F)(F)CN1; NMeCha = CN[C@@H](CC1CCCCC1)C(=O)O; NMeGly(cPr) = CN[C@H](C(=O)O)C1CC1; Hyp = O=C(O)[C@@H]1C[C@@H](O)CN1; NMeChg = CN[C@H](C(=O)O)C1CCCCC1; NMeI = CC[C@H](C)[C@H](NC)C(=O)O; NMeE = CN[C@@H](CCC(=O)O)C(=O)O; NMeD = CN[C@@H](CC(=O)O)C(=O)O; NMeL = CN[C@@H](CC(C)C)C(=O)O; NMeV = CN[C@H](C(=O)O)C(C)C; d(β3hA) = C[C@@H](N)CC(=O)O; NMeS = CN[C@@H](CO)C(=O)O; Pip = O=C(O)[C@@H]1CCCCN1; NMeA = CN[C@@H](C)C(=O)O; NMeAib = CNC(C)(C)C(=O)O; Nle = CCCC[C@H](N)C(=O)O; Piperidide = C1CCN(*)CC1; Pyrrolidide = C1CCN(*)C1; Ac5c = NC1(C(=O)O)CCCC1; Aze = O=C(O)[C@@H]1CCN1; Ac4c = NC1(C(=O)O)CCC1; Sar = CNCC(=O)O; Propyl = CCC*

What was measured:
[1] = system: Human pancreatic cancer cell line AsPC-1 (G12D mutation Kras); experiment: AsPC-1 cell growth inhibition (AsPC-1 CGI); assay type: cell-based; details: read-out: AsPC-1 cell growth inhibition, 50% growth inhibitory concentration (IC50 value); 96 hours, CellTiter-Glo, values classified in ranges
[2] = target: protein-protein interaction between Kras and SOS1 (biotin-tagged human Kras loaded with GDP, His-tagged human SOS1) (Homo sapiens (Human), UniProt P01116, G12D); experiment: Protein-protein interaction inhibition between Kras and SOS1 (KrasG12D-SOS PPI) using AlphaScreen; assay type: biochemical; details: AlphaScreen; biotin-tagged human Kras loaded with GDP, His-tagged human SOS1; read-out: KRAS G12D-SOS PPI IC50;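 further: kras produced in E. coli, Ni-coupled donor beads and streptavidin acceptor beads, excitation 680 nm with emission detected at 520–620 nm via singlet oxygen transfer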

SMILES: CCO[C@@H]1C[C@H]2C(=O)NC3(CCCC3)C(=O)N(C)[C@@H](C3CCCCC3)C(=O)N(C)[C@H](C(=O)N3CCCC3)CC(=O)N(C)[C@@H](CC(F)(F)F)C(=O)N[C@@H]([C@@H](C)CC)C(=O)N(C)CC(=O)N(C)CC(=O)N(C)[C@@H](CC3CCCCC3)C(=O)N(C)CC(=O)N[C@@H](CCc3cc(F)c(C(F)(F)F)c(F)c3)C(=O)N2C1 [Compound 1149] ([NMeAbu(4,4,4-F3)]I[Sar][Sar][NMeCha][Sar][hPhe(3,5-F2-4-CF3)][Hyp](Et)[Ac5c][NMeChg][NMeD]-Pyrrolidide; lactam N-11)
- IC50 [1]: ≤ 20 nM
- IC50 [2]: 0.62 nM

SMILES: CCCOC[C@H]1C(=O)NC2(CCCC2)C(=O)N(C)[C@@H](C2CCCCC2)C(=O)N(C)[C@H](C(=O)N2CCCCC2)CC(=O)N(C)[C@@H](CC(C)C)C(=O)N[C@@H]([C@@H](C)CC)C(=O)N(C)CC(=O)N(C)CC(=O)N(C)[C@@H](CC2CCCCC2)C(=O)N(C)CC(=O)N[C@@H](CCc2ccc(C(F)(F)F)c(Cl)c2)C(=O)N1C [Compound 692] ([NMeL]I[Sar][Sar][NMeCha][Sar][hPhe(3-Cl-4-CF3)][NMeS](Propyl)[Ac5c][NMeChg][NMeD]-Piperidide; lactam N-11)
- IC50 [1]: > 500 nM
- IC50 [2]: 6.9 nM

SMILES: CCCC[C@@H]1NC(=O)[C@H](Cc2cccc(I)c2)NC(=O)CN(C)C(=O)[C@H](CC2CCCC2)N(C)C(=O)[C@@H]2CCN2C(=O)[C@H](C)N(C)C(=O)[C@H]([C@@H](C)CC)NC(=O)[C@@H]2CCCCN2C(=O)C[C@@H](C(=O)N2CCCCC2)N(C)C(=O)[C@H](CC(C)C)NC(=O)C(C)(C)N(C)C1=O [Compound 1424] ([Pip]I[NMeA][Aze][NMeAla(cPent)][Sar][Phe(3-I)][Nle][NMeAib]L[NMeD]-Piperidide; lactam N-11)
- IC50 [1]: > 500 nM
- IC50 [2]: 200 nM

SMILES: CC[C@H](C)[C@@H]1NC(=O)[C@H](CC(C)C)N(C)C(=O)C[C@@H](C(=O)N2CCCCC2)N(C)C(=O)[C@H](CC2CCCC2)N(C)C(=O)C2(CCCC2)NC(=O)[C@@H]2CCCN2C(=O)[C@H](CCc2ccc(C(F)(F)F)c(Cl)c2)NC(=O)CN(C)C(=O)[C@H](CC2CCCCC2)N(C)C(=O)[C@@H]2CCN2C(=O)[C@H](C)N(C)C1=O [Compound 1820] ([NMeL]I[NMeA][Aze][NMeCha][Sar][hPhe(3-Cl-4-CF3)]P[Ac5c][NMeAla(cPent)][NMeD]-Piperidide; lactam N-11)
- IC50 [1]: > 500 nM
- IC50 [2]: 14 nM

SMILES: CCO[C@@H]1C[C@H]2C(=O)NC3(CCC3)C(=O)N(C)[C@@H]([C@@H](C)CC)C(=O)N(C)[C@H](C)CC(=O)N(C)[C@@H](CC(C)C)C(=O)N[C@@H]([C@@H](C)CC)C(=O)N(C)[C@@H](C)C(=O)N3CC[C@H]3C(=O)N(CC)[C@@H](Cc3ccc(C(F)(F)F)cc3)C(=O)N(C)CC(=O)N[C@@H](CCc3ccc(C(F)(F)F)c(Cl)c3)C(=O)N2C1 [Compound 547] (cyclo([Ac4c][NMeI][NMedβ3hAla][NMeL]I[NMeA][Aze][NEtPhe(4-CF3)][Sar][hPhe(3-Cl-4-CF3)][Hyp](Et)))
- IC50 [1]: ≤ 20 nM
- IC50 [2]: 1 nM

SMILES: CC[C@H](C)[C@@H]1NC(=O)[C@H](CC(C)C)N(C)C(=O)C[C@@H](C(=O)N2CCCCC2)N(C)C(=O)[C@H](C2CC2)N(C)C(=O)C2(CCCC2)NC(=O)[C@@H]2CCCN2C(=O)[C@H](CCc2ccc(C(F)(F)F)c(Cl)c2)NC(=O)CN(C)C(=O)[C@H](CC2CCCCC2)N(C)C(=O)[C@@H]2CCN2C(=O)[C@H](C)N(C)C1=O [Compound 1822] ([NMeL]I[NMeA][Aze][NMeCha][Sar][hPhe(3-Cl-4-CF3)]P[Ac5c][NMeGly(cPr)][NMeD]-Piperidide; lactam N-11)
- IC50 [1]: > 500 nM
- IC50 [2]: 50 nM

SMILES: CC[C@H](C)[C@@H]1NC(=O)[C@H](CC(C)C)N(C)C(=O)C[C@@H](C(=O)N(C)C)N(C)C(=O)[C@H](C2CCCC2)N(C)C(=O)C2(CCCC2)NC(=O)[C@@H]2CC(F)(F)CN2C(=O)[C@H](CCc2ccc(C(F)(F)F)c(F)c2)NC(=O)CN(C)C(=O)[C@H](CC2CCCCC2)N(C)C(=O)[C@@H]2CCN2C(=O)[C@H](C)N(C)C1=O [Compound 1264] ([NMeL]I[NMeA][Aze][NMeCha][Sar][hPhe(3-F,4-CF3)][Pro(4,4-F2)][Ac5c][NMeGly(cPent)][NMeD]-NMe2; lactam N-11)
- IC50 [1]: ≤ 20 nM
- IC50 [2]: 0.54 nM

SMILES: CC[C@H](C)[C@@H]1NC(=O)[C@H](CC(C)C)N(C)C(=O)C[C@@H](C)NC(=O)[C@H](C(C)C)N(C)C(=O)C2(CCCC2)NC(=O)[C@@H]2CCCN2C(=O)[C@H](CCc2ccc(C(F)(F)F)c(Cl)c2)NC(=O)CN(C)C(=O)[C@H](CC2CCCCC2)N(C)C(=O)[C@@H]2CCN2C(=O)[C@H](CCC(=O)NC)N(C)C1=O [Compound 810] (cyclo([Ac5c][NMeV][d(β3hA)][NMeL]I[NMeE](NHMe)[Aze][NMeCha][Sar][hPhe(3-Cl-4-CF3)]P))
- IC50 [1]: > 500 nM
- IC50 [2]: 49 nM
